Assays:
[1] = tested on: sickle cell disease model; settings: SCD mice; cited from earlier work
blood S1P levels [2] = assay: Blood S1P levels in mice after i.p. dose; type: in vivo; settings: single 10 mg/kg i.p., C57BL/6 male mice
[3] = Blood concentration of compound in mice after i.p. dose; type: in vivo; settings: single 10 mg/kg i.p., C57BL/6 male mice, LC-MS/MS
blood S1P levels [4] = settings: rats dosed with 10 mg/kg; cited from earlier work
blood S1P concentration = settings: treatment in mice; cited from earlier work
human SphK1 = settings: read-out: human SphK1 Ki; cited from earlier work
mouse SphK2 = settings: read-out: mouse SphK2 Ki; cited from earlier work

Cc1cc(CS(=O)(=O)c2ccccc2)cc(OCc2ccc(CN3CCC[C@@H]3CO)cc2)c1 [Compound 3a]
blood and plasma S1P levels [1]: reduced | erythrocyte sickling [1]: decreased

Cl.N=C(N)N1CCC[C@H]1c1nc(-c2ccc(OCc3ccc(C(F)(F)F)cc3)c(C(F)(F)F)c2)no1 [Compound 10, (S)-2-(3-(3-(trifluoromethyl)-4-((4-(trifluoromethyl)benzyl)oxy)phenyl)-1,2,4-oxadiazol-5-yl)pyrrolidine-1-carboximidamide]
time blood S1P levels remained elevated (blood S1P levels [2]): up to 6 hours | increase of blood S1P levels (blood S1P levels [2]; after 4 hours): nearly two-fold | peak level of compound in blood [3]: ~ 8 μM

CCCCCCCCc1ccc(-c2noc(C[C@@H]3CCCN3C(=N)N)n2)cc1 [Compound 4]
decrease of blood S1P levels (blood S1P levels [4]): about 80%

CCCCCCCCOc1ccc(-c2noc([C@@H]3CCCN3C(=N)N)n2)cc1C(F)(F)F.Cl [Compound 8]
blood S1P concentration (blood S1P concentration): increase in blood S1P concentration

Cc1ccc(S(=O)(=O)Nc2ccccc2/C=N/c2ccccc2NS(=O)(=O)c2ccc(C)cc2)cc1 [Compound 5]
Ki (human SphK1): 27 ± 3 µM

CCCCCCCCc1ccc(-c2noc([C@@H]3CCCN3C(=N)N)n2)cc1 [Compound 7]
Ki (mouse SphK2): 1.3 µM

— paper PMC8215855 (Journal of medicinal chemistry, 2020)
